Reference: PubChem BioAssay AID1963862 (Molecular Pharmacology Branch, DTP, NCI, 2024)

Tested on: KRAS patient-derived spheroids with HUVEC/MSC, viability
Assay: Anticancer human tumor 941728-121-R-J1-PDC patient-derived lung adenocarcinoma cell line growth inhibition [KRAS2]
Settings: for IC50: curve of first compound; for viability, T/C: stronger effect = lower value
How it was run: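 Combination screen of spheroid viability in tumor-cell co-cultures with endothelial (HUVEC) and mesenchymal stem cell stroma. Each agent was tested in half-log dilutions, topping at clinical Cmax or at 10 microM without a known Cmax.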

[1] = second compound 0.1 µM, first compound 0.0316 µM
[2] = second compound 0.1 µM, first compound 0.1 µM
[3] = second compound 0.1 µM, first compound 0.316 µM
[4] = second compound 0.1 µM, first compound 1 µM
[5] = second compound 0.1 µM, first compound 3.16 µM
[6] = second compound 0.1 µM, first compound 10 µM
[7] = second compound 0.316 µM, first compound 0.0316 µM
[8] = second compound 0.316 µM, first compound 0.1 µM
[9] = second compound 0.316 µM, first compound 0.316 µM
[10] = second compound 0.316 µM, first compound 1 µM
[11] = second compound 0.316 µM, first compound 3.16 µM
[12] = second compound 0.316 µM, first compound 10 µM
[13] = second compound 1 µM, first compound 0.0316 µM
[14] = second compound 1 µM, first compound 0.1 µM
[15] = second compound 1 µM, first compound 0.316 µM
[16] = second compound 1 µM, first compound 1 µM
[17] = second compound 1 µM, first compound 3.16 µM
[18] = second compound 1 µM, first compound 10 µM
[19] = second compound 3.16 µM, first compound 0.0316 µM
[20] = second compound 3.16 µM, first compound 0.1 µM
[21] = second compound 3.16 µM, first compound 0.316 µM
[22] = second compound 3.16 µM, first compound 1 µM
[23] = second compound 3.16 µM, first compound 3.16 µM
[24] = second compound 3.16 µM, first compound 10 µM
[25] = second compound 10 µM, first compound 0.0316 µM
[26] = second compound 10 µM, first compound 0.1 µM
[27] = second compound 10 µM, first compound 0.316 µM
[28] = second compound 10 µM, first compound 1 µM
[29] = second compound 10 µM, first compound 3.16 µM
[30] = second compound 10 µM, first compound 10 µM
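Further: spheroids exposed to agents for seven days before readout.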

## CC(C)NCC(C(=O)N1CCN(c2ncnc3c2C(C)CC3O)CC1)c1ccc(Cl)cc1 (stereo not given) + COc1cc2nc(C)nc(NC(C)c3cc(N)cc(C(F)(F)F)c3)c2cc1OC1CCOC1
Second compound 0.1 µM
  IC50: 32.7 nM
Second compound 0.316 µM
  IC50: < 31.6 nM
Second compound 1 µM
  IC50: < 31.6 nM
Second compound 3.16 µM
  IC50: < 31.6 nM
Second compound 10 µM
  IC50: < 31.6 nM
[1]
  viability, T/C: 49.7%
[2]
  viability, T/C: 46.5%
[3]
  viability, T/C: 34.1%
[4]
  viability, T/C: 23.4%
[5]
  viability, T/C: 11.8%
[6]
  viability, T/C: 8.21%
[7]
  viability, T/C: 44%
[8]
  viability, T/C: 41.4%
[9]
  viability, T/C: 32.5%
[10]
  viability, T/C: 21.5%
[11]
  viability, T/C: 10.3%
[12]
  viability, T/C: 11.1%
[13]
  viability, T/C: 40.4%
[14]
  viability, T/C: 34.8%
[15]
  viability, T/C: 29.7%
[16]
  viability, T/C: 23.1%
[17]
  viability, T/C: 10.3%
[18]
  viability, T/C: 1.68%
[19]
  viability, T/C: 35.1%
[20]
  viability, T/C: 35.2%
[21]
  viability, T/C: 36.7%
[22]
  viability, T/C: 13%
[23]
  viability, T/C: 5.96%
[24]
  viability, T/C: 5.42%
[25]
  viability, T/C: 13.4%
[26]
  viability, T/C: 9.39%
[27]
  viability, T/C: 3.04%
[28]
  viability, T/C: 1.04%
[29]
  viability, T/C: 0.52%
[30]
  viability, T/C: 0.66%

## CC(C)n1nc(-c2ccc3oc(N)nc3c2)c2c(N)ncnc21 + COc1cc2nc(C)nc(NC(C)c3cc(N)cc(C(F)(F)F)c3)c2cc1OC1CCOC1
Second compound 0.1 µM
  IC50: < 0.316 nM
Second compound 0.316 µM
  IC50: < 0.316 nM
Second compound 1 µM
  IC50: < 0.316 nM
Second compound 3.16 µM
  IC50: < 0.316 nM
Second compound 10 µM
  IC50: < 0.316 nM
Second compound 0.1 µM, first compound 0.000316 µM
  viability, T/C: 41.2%
Second compound 0.1 µM, first compound 0.001 µM
  viability, T/C: 47.9%
Second compound 0.1 µM, first compound 0.00316 µM
  viability, T/C: 40.9%
Second compound 0.1 µM, first compound 0.01 µM
  viability, T/C: 33.3%
[1]
  viability, T/C: 31%
[2]
  viability, T/C: 28.3%
Second compound 0.316 µM, first compound 0.000316 µM
  viability, T/C: 42.4%
Second compound 0.316 µM, first compound 0.001 µM
  viability, T/C: 50%
Second compound 0.316 µM, first compound 0.00316 µM
  viability, T/C: 40.4%
Second compound 0.316 µM, first compound 0.01 µM
  viability, T/C: 24.3%
[7]
  viability, T/C: 24.9%
[8]
  viability, T/C: 16.7%
Second compound 1 µM, first compound 0.000316 µM
  viability, T/C: 40.8%
Second compound 1 µM, first compound 0.001 µM
  viability, T/C: 37%
Second compound 1 µM, first compound 0.00316 µM
  viability, T/C: 26.1%
Second compound 1 µM, first compound 0.01 µM
  viability, T/C: 19.8%
[13]
  viability, T/C: 19.9%
[14]
  viability, T/C: 12.8%
Second compound 3.16 µM, first compound 0.000316 µM
  viability, T/C: 31.4%
Second compound 3.16 µM, first compound 0.001 µM
  viability, T/C: 31.9%
Second compound 3.16 µM, first compound 0.00316 µM
  viability, T/C: 18.5%
Second compound 3.16 µM, first compound 0.01 µM
  viability, T/C: 15%
[19]
  viability, T/C: 12.6%
[20]
  viability, T/C: 4.73%
Second compound 10 µM, first compound 0.000316 µM
  viability, T/C: 7.59%
Second compound 10 µM, first compound 0.001 µM
  viability, T/C: 6.39%
Second compound 10 µM, first compound 0.00316 µM
  viability, T/C: 2.23%
Second compound 10 µM, first compound 0.01 µM
  viability, T/C: 2.22%
[25]
  viability, T/C: 0.71%
[26]
  viability, T/C: 4.65%

## CC1(C)CCC(CN2CCN(c3ccc(C(=O)NS(=O)(=O)c4ccc(NCC5CCOCC5)c([N+](=O)[O-])c4)c(Oc4cnc5[nH]ccc5c4)c3)CC2)=C(c2ccc(Cl)cc2)C1 + COc1cc2nc(C)nc(NC(C)c3cc(N)cc(C(F)(F)F)c3)c2cc1OC1CCOC1
Second compound 0.1 µM
  IC50: < 31.6 nM
Second compound 0.316 µM
  IC50: < 31.6 nM
Second compound 1 µM
  IC50: < 31.6 nM
Second compound 3.16 µM
  IC50: < 31.6 nM
Second compound 10 µM
  IC50: < 31.6 nM
[1]
  viability, T/C: 38.8%
[2]
  viability, T/C: 40.6%
[3]
  viability, T/C: 36.4%
[4]
  viability, T/C: 33.9%
[5]
  viability, T/C: 6.79%
[6]
  viability, T/C: 4.58%
[7]
  viability, T/C: 36.7%
[8]
  viability, T/C: 33%
[9]
  viability, T/C: 38.5%
[10]
  viability, T/C: 31.8%
[11]
  viability, T/C: 7.02%
[12]
  viability, T/C: 3.43%
[13]
  viability, T/C: 35.2%
[14]
  viability, T/C: 46.4%
[15]
  viability, T/C: 34.4%
[16]
  viability, T/C: 32.2%
[17]
  viability, T/C: 7.71%
[18]
  viability, T/C: 1.61%
[19]
  viability, T/C: 39.2%
[20]
  viability, T/C: 34%
[21]
  viability, T/C: 32.2%
[22]
  viability, T/C: 29.6%
[23]
  viability, T/C: 5.76%
[24]
  viability, T/C: 3.49%
[25]
  viability, T/C: 19.6%
[26]
  viability, T/C: 19.7%
[27]
  viability, T/C: 17.5%
[28]
  viability, T/C: 7.37%
[29]
  viability, T/C: 1.44%
[30]
  viability, T/C: 0.52%
